# Paper PMC10580319, “Quantitative Imaging of the Action of vCPP2319, an Antimicrobial Peptide from a Viral Scaffold, against Staphylococcus aureus Biofilms of a Clinical Isolate” (ACS Infectious Diseases, 2023)
# Where no end group is shown, it is not given here.
# Columns and labels:
# in vitro = in vitro ADME, human; conditions: 37 °C
# Description: vCPP2319 at final concentrations of 50, 100, 200, and 500 μM was incubated with 25% (v/v in H2O) human serum (Sigma-Aldrich) at 37 °C, with gentle swirling. At different time points (0, 1, 5, 10, 30, 60 120, 360, and 1440 min), 120 μL aliquots were taken and treated with 20 μL of 5% perchloric acid (v/v in H2O) for 30 min at 4 °C, to stop the proteolytic reaction. To determine the maximum peptide intensity (100% intact peptide; t0), serum proteins were first precipitated, followed by the addition of the peptide. Controls of serum without peptide and peptide not incubated in serum were also included in the assay. Samples were next centrifuged at 13 000g for 10 min to remove serum proteins. The supernatants were analyzed by reversed-phase HPLC (RP-HPLC) and LC–mass spectrometry (LC-MS). The percentage of intact peptide was calculated by RP-HPLC peak integration, expressed as percent of the amount at t0, and data were fitted to a monoexponential decay model using GraphPad Prism 7.0 to estimate the peptide half-life (t1/2). Analytical RP-HPLC was performed on a LC-20AD instrument (Shimadzu, Kyoto, Japan) equipped with a Luna C18 column (4.6 × 50 mm, 3 μm; Phenomenex, Torrance, CA, USA) using linear gradients of solvent B (0.036% (v/v) trifluoroacetic acid (TFA) in acetonitrile (ACN)) into A (0.045% (v/v) TFA in H2O) over 15 min, at a flow rate of 1 mL/min and UV detection at 220 nm. MS analysis was performed on an LC-MS 2010EV instrument (Shimadzu) fitted with an XBridge C18 column (4.6 mm × 150 mm, 3.5 μm, Waters, Cerdanyola del Valles, Spain), eluting with linear gradients of F (0.08% (v/v) formic acid [FA] in ACN) into E (0.1% (v/v) FA in H2O) over 15 min at 1 mL/min flow rate.[45]
# 1 - vCPP2319 stability in human serum
# Figure S1 – vCPP2319 stability in human serum. Variable concentrations of the peptide were incubated with 25% (v/v in H2O) human serum for 0, 30, 60 and 120 min.
# The intact peptide was separated from degradation products by HPLC using a 0 – 95% ACN gradient over 15 min. Afterwards, the percentage of intact peptide (Figure 1C) was calculated by chromatograms peak integration.
# (1 picture or pasted object on this page, not shown here)
# [1] = test system: S. aureus ATCC 6538 biofilms; assay: Resazurin reduction fluorometric assay on 24 h-preformed biofilms; assay type: cell-based, Staphylococcus aureus; conditions: 0.78 to 50 μM, 4 h and 24 h treatment, dose-dependent
# Description: (§1) The effect of vCPP2319 on 24 h-preformed S. aureus biofilms was evaluated using three distinct methods, as previously described:[24] the metabolic activity and viability of biofilm-embedded cells was determined using a resazurin reduction fluorometric assay and a colony count assay, respectively. The total biofilm biomass was quantified by using a crystal violet assay.
# (§2) Resazurin, the active compound in alamarBlue reagent (Invitrogen), is a blue dye that can be reduced to a pink fluorescent intermediate, resorufin, as a result of cells metabolic activity.[48]S. aureus suspensions were prepared to a final concentration of 1 × 10^6 CFU/mL and incubated in a sterile 96-well microtiter black flat-bottomed polystyrene plate (Corning) for 24 h at 37 °C. […] After washing the biofilms twice with MHB, alamarBlue reagent was added at a final concentration 10% (v/v in MHB) to each sample and its reduction was monitored by measuring the fluorescence intensity (excitation and emission wavelengths were 530 and 590 nm, respectively) of the samples every 5 min during 2 h at 37 °C, in an infinite M200 microplate reader (Tecan). […] The percentage of resazurin reduction was determined relatively to the control, after blank (10% (v/v) alamarBlue reagent in MHB) correction.
# [2] = test system: S. aureus clinical isolate biofilms; assay: as above; assay type: cell-based, Staphylococcus aureus; conditions: 4 h treatment, only at 25 and 50 μM
# Description: as §1, §2
# [3] = test system: S. aureus ATCC 6538 biofilms; assay: Crystal violet binding assay, biofilm biomass; assay type: cell-based, Staphylococcus aureus; conditions: 24 h-preformed biofilms, treatment for 4 or 24 h
# Description: as §1
# (§3) Crystal violet is a basic dye that binds to negatively charged molecules, such as those in biofilms EPS matrix and on bacterial membrane surface.[51]S. aureus suspensions at 1 × 10^6 CFU/mL were incubated in a 96-well microtiter clear flat-bottomed polystyrene plate (Corning) for 24 h at 37 °C. […] (EC 3.2.1.1), ranging from 0.0078 to 0.5 mg/mL, for 4 h at 37 °C. Untreated biofilms were used as a control. Biofilms were washed twice with MHB and incubated with 0.25% (v/v in sterile Milli-Q water) crystal violet (Sigma-Aldrich) for 30 min at room temperature. After each sample was washed three times with MHB, crystal violet was solubilized with 95% (v/v) ethanol (Carlo Erba Reagents S.A.S., France) by repeated pipetting. Biofilm biomass was quantified by measuring the absorbance at 590 nm of each sample in an infinite M200 microplate reader (Tecan). The percentage of crystal violet staining was determined relative to the control after blank (0.25% (v/v) crystal violet in sterile Milli-Q water) correction.
# [4] = test system: S. aureus clinical isolate biofilms; assay: Crystal violet binding assay, biofilm biomass, with global mass and density ratios; assay type: cell-based, Staphylococcus aureus
# Description: as §1, §3
# The mean emission fluorescence intensity of WGA integrated over a plane xy at a specific depth, z, If,WGA,xy, is proportional to the mass of polysaccharides in that plane.
substance,measurement,setting,value
WRRRYRRWRRRRRWRRRPRR-NH2 [vCPP2319],half-life at 50 μM,"in vitro; 50 μM peptide, 25% (v/v in H2O) human serum, RP-HPLC peak integration, monoexponential decay fit, 95% CI 139–401, read-out: half-life (t1/2) in human serum",3.45 h
same,half-life at 100 μM,"in vitro; 100 μM peptide, 25% (v/v in H2O) human serum, RP-HPLC peak integration, monoexponential decay fit, 95% CI 234–542, read-out: half-life (t1/2) in human serum",5.43 h
same,half-life at 200 μM,"in vitro; 200 μM peptide, 25% (v/v in H2O) human serum, RP-HPLC peak integration, monoexponential decay fit, 95% CI 327–490, read-out: half-life (t1/2) in human serum",6.53 h
same,half-life at 500 μM,"in vitro; 500 μM peptide, 25% (v/v in H2O) human serum, RP-HPLC peak integration, monoexponential decay fit, 95% CI 368–2107, read-out: half-life (t1/2) in human serum",10.4 h
same,remaining at 1 h,"in vitro; after 1 h incubation, all concentrations studied (50, 100, 200, 500 μM), 25% (v/v) human serum, RP-HPLC, read-out: intact peptide remaining",> 60%
same,metabolic activity of biofilm-embedded cells,[1],significant reduction
same,metabolic activity of biofilm-embedded cells,[2],significantly reduced
same,effect on biofilm biomass,[3],no significant changes
same,biofilm biomass reduction,"[4]; 24 h-preformed biofilms, 4 h treatment, crystal violet, relative to untreated biofilm",approximately 30%
same,mi/mcontrol (global) eq 7,"[4]; fold variation relative to untreated biofilm, fraction of crystal violet absorbance retained",0.7
same,ρi/ρcontrol (global) eq 8,"[4]; fold variation relative to untreated biofilm, from crystal violet data and biofilm volume, for both agents fi assumed as for α-amylase alone",1.2
